In brackets after ≈: the same amount, converted by molar mass. Where two headings read alike, the source gives them in different places. One block for each compound: values may come before it.
How the values were obtained:
[1] = Initial rate of prodrug hydrolysis in human skeletal muscle S9 (HPLC); format: in vitro ADME; details: for Hydrolysis muscle: IVIVE model input, determined experimentally
Protocol: (§1) As expected, rapid enzyme-catalysed hydrolysis of the 5’-carbonate group of 1–8 was observed, evident from the short plasma half-lives (<12 h) and relatively rapid initial hydrolysis rates in liver S9 and muscle S9 fractions (evaluated over a timeframe in which the carbamate masking group remains intact). […] Although chemically similar to capecitabine at the carbamate moiety, the plasma half-lives of longer-chain carbamates 12–16 were generally shorter. Initial hydrolysis rates in liver and muscle S9 fractions were within a sixfold range of capecitabine as measured in our hands, with the longer C5 to C8 analogues (13–16) undergoing hydrolysis most efficiently in liver S9 (Supplementary Figure 21). […] In all cases, the hydrolysis of the carbonate moiety of 1–8 was considerably faster in liver than muscle.
(§2) Reaction mixtures containing mixed gender human skeletal muscle S9 (10.47 mg mL^−1, Bioreclamation) or phosphate buffer (0.1 M, pH 7.4) and pooled, mixed gender liver S9 (2.0 mg mL^−1, Xenotech) were pre-incubated at 37 °C for 5 min. Reactions were initiated by the addition of prodrugs 1–8 (1 mM + 5% DMSO). After incubation at 37 °C, aliquots were taken at time points measuring initial rate (Muscle S9: 1–3: 0.5, 10, 20, 30, 40, 50, and 60 min; 4: 0.5, 20, 40, 60, 80, 100, and 120 min; 5–6: 0.5, 30, 60, 90, 150, and 180 min; 7–8: 0.5 min, 30 min, 1 h, 3 h, 4 h, 5 h) (Liver S9: 1–2: 0.5, 1, 2, 3, 4, and 5 min; 3–6: 0.5, 2, 4, 6, 8, and 10 min; 7–8: 0.5, 5, 10, 15, 20, 25, 30, and 60 min). These aliquots were quenched in two volumes of ice-cold methanol. The quenched aliquots were then centrifuged at 16,873 × g for 5 min. The supernatant was diluted 10-fold into phosphate buffer (0.1 M, pH 7.4) and analysed by HPLC method described within Supplementary Information (monitoring starting material depletion at 305 nm). […]

[2] = Initial rate of prodrug hydrolysis in human liver S9 (HPLC); format: in vitro ADME; details: for Hydrolysis liver: IVIVE model input, determined experimentally
Protocol: as §1, §2

[3] = Prodrug hydrolysis in undiluted human plasma (HPLC, half-life); format: in vitro ADME; details: 1 mM, 37 °C
Protocol: as §1
Reaction mixtures containing pooled mixed gender human plasma (Bioreclamation) were pre-incubated at 37 °C for 5 min. Reactions were initiated by the addition of prodrugs 1–8 (1 mM + 5% DMSO). […] The supernatant was diluted 10-fold into phosphate buffer (0.1 M, pH 7.4) and analysed by HPLC method described within Supplementary Information (monitoring starting material depletion at 305 nm). […]
323 buffer (0.1 M, pH 7.4) and analyzed by the HPLC method described above monitoring […]

[4] = tested on: human immunodeficiency virus type 1 reverse transcriptase; details: intracellular FTC-TP; cited from earlier work
[5] = cited from earlier work
[6] = 25 °C; cited from earlier work
viral replication = details: plasma concentration; cited from earlier work
[7] = IVIVE model input parameter (Supplementary Table 4); source not given; cited from earlier work
[8] = oral 400mg FTC, human clinical data, mean (minimum-maximum)
[9] = oral FTC at steady state, average of 3 independent clinical studies, mean (± SD), ref Supplementary References 3-5

Compound: CCCCCCOC(=O)Nc1nc(=O)n([C@@H]2CS[C@H](CO)O2)cc1F [prodrug 14, Hexyl (5-fluoro-1-((2R,5S)-2-(hydroxymethyl)-1,3-oxathiolan-5-yl)-2-oxo-1,2-dihydropyrimidin-4-yl)carbamate]
melting point: 46 to 49 °C

Compound: CCCCOC(=O)Nc1nc(=O)n([C@@H]2CS[C@H](CO)O2)cc1F [prodrug 12, Butyl (5-fluoro-1-((2R,5S)-2-(hydroxymethyl)-1,3-oxathiolan-5-yl)-2-oxo-1,2-dihydropyrimidin-4-yl)carbamate]
Hydrolysis muscle [1]: 0.001 h⁻¹
melting point: 47 °C
Hydrolysis liver [2]: 0.0125 h⁻¹

Compound: CCCCCCOC(=O)Nc1nc(=O)n([C@@H]2CS[C@H](COC(=O)OCCCCCC)O2)cc1F [prodrug 6, Hexyl (5-fluoro-1-((2R,5S)-2-((((hexyloxy)carbonyl)oxy)methyl)-1,3-oxathiolan-5-yl)-2-oxo-1,2-dihydropyrimidin-4-yl)carbamate]
melting point: 110 °C

Compound: COC(=O)Nc1nc(=O)n([C@@H]2CS[C@H](CO)O2)cc1F [prodrug 9, Methyl (5-fluoro-1-((2R,5S)-2-(hydroxymethyl)-1,3-oxathiolan-5-yl)-2-oxo-1,2-dihydropyrimidin-4-yl)carbamate]
melting point: 85 to 89 °C

Compound: CCCOC(=O)Nc1nc(=O)n([C@@H]2CS[C@H](CO)O2)cc1F [prodrug 11, Propyl (5-fluoro-1-((2R,5S)-2-(hydroxymethyl)-1,3-oxathiolan-5-yl)-2-oxo-1,2-dihydropyrimidin-4-yl)carbamate]
melting point: 82 to 86 °C

Compound: CCCCCOC(=O)Nc1nc(=O)n([C@@H]2CS[C@H](COC(=O)OCCCCC)O2)cc1F [prodrug 5, Pentyl (5-fluoro-2-oxo-1-((2R,5S)-2-((((pentyloxy)carbonyl)oxy)methyl)-1,3-oxathiolan-5-yl)-1,2-dihydropyrimidin-4-yl)carbamate]
melting point: 103 to 106 °C

Compound: CCCCCOC(=O)Nc1nc(=O)n([C@@H]2CS[C@H](CO)O2)cc1F [prodrug 13, Pentyl (5-fluoro-1-((2R,5S)-2-(hydroxymethyl)-1,3-oxathiolan-5-yl)-2-oxo-1,2-dihydropyrimidin-4-yl)carbamate]
melting point: 44 to 47 °C

Compound: CCCCOC(=O)Nc1nc(=O)n([C@@H]2CS[C@H](COC(=O)OCCCC)O2)cc1F [prodrug 4, Butyl (1-((2R,5S)-2-(((butoxycarbonyl)oxy)methyl)-1,3-oxathiolan-5-yl)-5-fluoro-2-oxo-1,2-dihydropyrimidin-4-yl)carbamate]
Hydrolysis muscle [1]: 0.0290 h⁻¹
Hydrolysis liver [2]: 0.5786 h⁻¹

Compound: COC(=O)Nc1nc(=O)n([C@@H]2CS[C@H](COC(=O)OC)O2)cc1F [prodrug 1, Methyl (5-fluoro-1-((2R,5S)-2-(((methoxycarbonyl)oxy)methyl)-1,3-oxathiolan-5-yl)-2-oxo-1,2-dihydropyrimidin-4-yl)carbamate]
melting point: 97 to 103 °C

Compound: Nc1nc(=O)n([C@@H]2CS[C@H](COP(=O)(O)OP(=O)(O)OP(=O)(O)O)O2)cc1F [FTC-TP, FTC triphosphate]
intracellular half-maximal inhibitory concentration (IC50) [4]: 150 fmol per 10^6 cells

Compound: Nc1nc(=O)n([C@@H]2CS[C@H](CO)O2)cc1F [FTC, emtricitabine]
AUC, observed [5, 8]: 16484 (11524-21388) ng/h/mL
Cmax, observed [5, 8]: 2968 (1582-4165) ng/mL
Cmin, observed [5, 8]: 63 (48-134) ng/mL
AUC, observed [5, 9]: 9100 (± 1646) ng/h/mL
Cmax, observed [5, 9]: 1773 (± 46.1) ng/mL
Cmin, observed [5, 9]: 67 (± 25) ng/mL
water solubility [6]: 112 mg/mL (≈ 453 mM)
concentration inhibiting 90% of viral replication (IC90) (viral replication): 0.05 µg/mL
Plasma Cl [7]: 19.35 L/h

The remaining lines, values ahead:

Hydrolysis muscle [1]: 0.0067 h⁻¹
Hydrolysis liver [2]: 0.0694 h⁻¹
Compound: CCCCCCCCOC(=O)Nc1nc(=O)n([C@@H]2CS[C@H](COC(=O)OCCCCCCCC)O2)cc1F [prodrug 8, Octyl (5-fluoro-1-((2R,5S)-2-((((octyloxy)carbonyl)oxy)methyl)-1,3-oxathiolan-5-yl)-2-oxo-1,2-dihydropyrimidin-4-yl)carbamate]

5'-carbonate hydrolysis rate in muscle S9 ([1]; 1 mM, 37 °C, across series 1-8): maximum
plasma half-life (hydrolysis of 5'-carbonate moiety) [3]: shortest
melting point: 102 to 107 °C
5'-carbonate hydrolysis rate in liver S9 ([2]; 1 mM, 37 °C, across series 1-8): maximum
Compound: CCCOC(=O)Nc1nc(=O)n([C@@H]2CS[C@H](COC(=O)OCCC)O2)cc1F [prodrug 3, Propyl (5-fluoro-2-oxo-1-((2R,5S)-2-(((propoxycarbonyl)oxy)methyl)-1,3-oxathiolan-5-yl)-1,2-dihydropyrimidin-4-yl)carbamate]

Hydrolysis muscle [1]: 0.004 h⁻¹
Hydrolysis liver [2]: 0.0282 h⁻¹
Compound: CCCCCCCCOC(=O)Nc1nc(=O)n([C@@H]2CS[C@H](CO)O2)cc1F [prodrug 16, Octyl (5-fluoro-1-((2R,5S)-2-(hydroxymethyl)-1,3-oxathiolan-5-yl)-2-oxo-1,2-dihydropyrimidin-4-yl)carbamate]

plasma half-life (hydrolysis of 5'-carbonate moiety) [3]: shortest
Compound: CCOC(=O)Nc1nc(=O)n([C@@H]2CS[C@H](COC(=O)OCC)O2)cc1F [prodrug 2, Ethyl (1-((2R,5S)-2-(((ethoxycarbonyl)oxy)methyl)-1,3-oxathiolan-5-yl)-5-fluoro-2-oxo-1,2-dihydropyrimidin-4-yl)carbamate]

melting point: 46 °C
Compound: CCCCCCCOC(=O)Nc1nc(=O)n([C@@H]2CS[C@H](CO)O2)cc1F [prodrug 15, Heptyl (5-fluoro-1-((2R,5S)-2-(hydroxymethyl)-1,3-oxathiolan-5-yl)-2-oxo-1,2-dihydropyrimidin-4-yl)carbamate]

— article PMC6441007, “Semi-solid prodrug nanoparticles for long-acting delivery of water-soluble antiretroviral drugs within combination HIV therapies” (Nature Communications, 2019)
